Data reported in BindingDB's records for doi:10.1021/jf103164r (Rutgers University, 2011).

The compounds below were run against T1, Dihydrofolate reductase (Homo sapiens, UniProt P00374) (assay: Inhibition of human DHFR).
T1 sequence (P00374 whole entry): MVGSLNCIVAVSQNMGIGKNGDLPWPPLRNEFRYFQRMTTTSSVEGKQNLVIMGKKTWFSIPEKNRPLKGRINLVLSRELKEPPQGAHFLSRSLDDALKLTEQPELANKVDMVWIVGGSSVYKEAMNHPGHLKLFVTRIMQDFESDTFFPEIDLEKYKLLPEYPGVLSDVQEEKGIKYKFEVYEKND

IC50 | SMILES
300 µM | Nc1nnc(CCC(=O)c2cccs2)s1 [3-(5-Amino-[1,3,4]thiadiazol-2-yl)-1-(thiophen-2-yl)propan-1-one]
1040 µM | CS(=O)(=O)c1ccc2nc(N)sc2c1 [6-(methylsulfonyl)benzo[d]thiazol-2-amine]
312 µM | Nc1nc2ccc(OC(F)(F)F)cc2s1 [SMR000058231]
